Laboratory results as given in PMC12564596 (2025).

Tests used:
[1] = test system: HS-Apt-OTC (DNA, aptamer) GGGGGCACACATGTAGGTGCTGTCCAGGTGTGGTTGTGGT; test: LSPR and QCM-D selectivity test; details: 137 mM NaCl, 2.7 mM KCl; PBS pH 7.4; 100 nM compound
[2] = test system: HS-Apt-PEN (DNA, aptamer) CTGAATTGGATCTCTCTTCTTGAGCGATCTCCACA; test: LSPR on AuNPs, Langmuir fit; details: 137 mM NaCl, 2.7 mM KCl; PBS pH 7.4; flow; MCH and salmon sperm DNA passivation; immobilised aptamer
[3] = test system: HS-Apt-PEN (DNA, aptamer) CTGAATTGGATCTCTCTTCTTGAGCGATCTCCACA; test: QCM-D on gold electrode, Langmuir fit of 3rd harmonic frequency; details: 137 mM NaCl, 2.7 mM KCl; PBS pH 7.4; flow; immobilised aptamer; no clear plateau to 500 nM; some non-specific binding likely

binding [1] | KD [2] [nM] | KD [3] [nM] | SMILES
yes |  |  | CN(C)[C@@H]1C(=O)C(C(N)=O)=C(O)[C@@]2(O)C(=O)C3=C(O)c4c(O)cccc4[C@@](C)(O)[C@H]3[C@H](O)[C@@H]12
 | 20 | 50 | CC1(C)S[C@@H]2[C@H](NC(=O)Cc3ccccc3)C(=O)N2[C@H]1C(=O)O
